Test results from US20220380331A1, “TREATMENT OF CONDITIONS OF THE NERVOUS SYSTEM” (priority 2019, published 2022).
“Also recorded” adds a separate entry of the source.

How the values were obtained:
[1] = system: sensorimotor cortical slices; assay: Field potentials and paired-pulse protocols in in vitro sensorimotor cortical slices; design: species or system rat
Protocol: FIG. […]): Forelimb (FL) shifts into hindlimb (HL) area of sensorimotor cortex (M1) after perineuronal net inhibitor (PNNi) and spinal cord injury (SCI) combination. PNNi and/or injury independently enhances cortical plasticity in spinal cord injured rats. Intracortical microstimulation (ICMS) was performed at stereotaxic coordinates within a right hemisphere craniotomy 5 mm rostral/caudal to bregma (B) (A) 11 weeks post-injury. Representative heat maps per group illustrate the percentage of animals for each stereotaxic coordinate where HL (B-C) or FL (D-E) movements were able to be elicited. The Lister Hooded rat baseline HL and FL cortical maps (dotted outlines in B-E) were compared to groups with mid-thoracic SCI (B, D) and/or long-term PNNi administration (C, E) to assess structural plasticity. HL movements were unable to be elicited after SCI (B-C). Measurements for FL analysis (K-N) are illustrated in J). After PNNi and/or SCI, FL movements were elicited in areas that previously elicited HL movements (see right of white dotted outline D-E). […] G: Plot of the average field potential amplitudes vs. stimulus intensity per group. Synaptic responses were elicited in cortical layers II/III by electrical stimuli via bipolar electrodes placed in cortical layers V/VI. Recordings were performed on cortical slice at the following coordinates: ML: 2-3 mm and AP 1.40-1.8 mm caudal to bregma. […]

rats = conditions: cited from earlier work
[2] = system: HL sensory function after spinal cord injury; assay: Von Frey assay (50% withdrawal threshold) in spinal cord injured rats; format: in vivo, rat
Protocol: Changes to HL sensory function was assessed using von Frey methodologies to look for hyperalgesia and neuropathic pain. Four animals at a time were acclimatised to Perspex cages with a wire mesh bottom (FIG. 3) for approximately fifteen to twenty minutes before the test began and until general movement and grooming activities stopped. Von Frey filaments (Touch Test™ Sensory Evaluator Kit of 20; #39337500; Leica Biosystems, Milton Keynes, England FIG. 3C) were depressed through the mesh-bottomed cage against the more sensitive plantar arch of the HL footpads where withdrawal of the limb was counted as a positive result. Flinching was also seen as a positive response whereas walking was an ambiguous response requiring retesting after an appropriate delay. The left hindpaw and right hindpaw of all animals were performed in series to provide a sufficient interval between stimuli.

[3] = system: acute contusive spinal cord injury; assay: Basso, Beattie and Bresnahan (BBB) HL locomotor open field test after moderate T9 contusion injury; format: in vivo, rat; conditions: daily oral treatment, 5 weeks after injury, vehicle ~10
Protocol: Adult female Lister-hooded rats (200-250 g) were obtained from Charles River Laboratories (Canterbury, UK). Rats were housed in pairs in Central Biomedical Services (University of Leeds, UK) in a temperature-controlled environment in (20±1° C.), with a 12 hr light/dark cycle (lights on at 07:00). All procedures and experiments complied with the UK Animals (Scientific Procedures) Act 1986. Using isofluorane as an anaesthetic (5% in 02 for induction and 1-2% in 02 for the duration of the procedure), animals were shaved and sterilised. Vertebral segments T7-13 were exposed and a dorsal laminectomy was performed at T8. Vertebral levels T7 and T8 were stabilised whilst an Infinite Horizon impactor (Precision Systems and Instrumentation, LLC, Fairfax Station, Va.) was used to provide a 200 kdyn Cx (moderate injury) at the level of T9. Muscles were sutured and the skin was closed with autoclips. Analgesia ([…] Buprenorphine; 0.015 mg/kg; Henry Schein Animal Health, Dumfries, UK) and antibiotics (Baytril enrofloxacin; 2.5 mg/kg; Henry Schein Animal Heath, Dumfries, UK) were given via subcutaneous injection immediately post-surgery and for three days following surgery. […] HL locomotor ability was assessed at various time points throughout the acute SCI paradigm using the BBB HL locomotor scale. […] Each BBB test was simultaneously assessed by two individuals. […]

rat = conditions: in vivo, po; cited from earlier work
PNN^+HEK cells = assay: Removal of PNNs in vitro in PNN+HEK cell model (WFA staining); format: cell-based, human
Text: A previously developed human embryonic kidney 293T (HEK) cell model, engineered to express the essential ECM components (hyaluronan synthase 3 (HAS-3) and HAPLN-1) required to induce the formation of a pericellular PNN-like structure (PNN^+HEK cells) (Kwok et al., 2010), was used to investigate the efficacy of PNNi in removing PNNs in vitro (FIG. 9A-I).

What does the source list for `Cc1cc(=O)oc2cc(O)ccc12` [PNNi, 4-methylumbelliferone]?
intracortical synaptic transmission ([1]; combination of SCI and PNNi treatment): increased intracortical synaptic transmission; also recorded: elevated synaptic transmission; paired-pulse inhibition (PPR) ([1]; sham animals, short and long interstimulus intervals): not altered; maximum tolerated dose (rats; oral, rats): 6000 mg/kg; dose tolerated in rats (rats; rat, in vivo): at least 200 mg/kg/day; mortality in the chronic study (rats; rats, 200 mg/kg/day and 40 mg/kg/day for three months): No mortality was reported; L-R average 50% withdrawal threshold, plantar hindpaws ([2]; 8 week PNNi with or without training, 9 and 12 WPI): did not show hyperalgesia; tactile sensitivity using von Frey hair test ([2]; treatment groups after T9 contusion injury, n=11): did not show any difference; BBB score [3]: ~15 scores; lethal dose (rat): 6200 mg/kg; WFA-positive staining removed (PNN^+HEK cells; two days of treatment, 0.5 mM or 1.0 mM): 86.4±4.47%; staining intensity recovered, of baseline lectin binding (PNN^+HEK cells; within three days post-treatment): 43.6±14.6%
